The source of these data is patent US7880025B2, “Ruthenium silyl-arene complex , and method for production thereof” (Takasago International Corporation, priority 2009, dated 2011).

The nature of this data set: Solubility of [RuCl2(arene)]2 complexes in 100 ml of solvent at 25° C. in various solvents.

Regarding [RuCl2(mesitylene)]2, the “solubility in 100 ml of solvent, Acetone” value (solvent Acetone) is on record as 0.01 g/100 ml. For the same substance, under “solvent Chloroform”, the “solubility in 100 ml of solvent, Chloroform” value is recorded as 0.3 g/100 ml. In addition, the “solubility in 100 ml of solvent, Methanol” value (solvent Methanol) is 0.03 g/100 ml. Also, the “solubility in 100 ml of solvent, THF” value (solvent THF) was found to be 0.5 g/100 ml. For the same substance, the “solubility in 100 ml of solvent, Toluene” value (solvent Toluene) is reported as 0.2 g/100 ml.
